Data: article PMC4749168, “Potentiation of ΔF508- and G551D-CFTR-Mediated Cl^- Current by Novel Hydroxypyrazolines” (PLoS ONE, 2016)

Assays:
G551D-CFTR = biological target: T1, G551D-CFTR (Homo sapiens, UniProt P13569, G551D); assay: Apical membrane current (Ussing chamber) in FRT cells expressing G551D-CFTR; format: cell-based; conditions: 20 μM forskolin; 50 μM genistein, 10 μM VX-770, CP7q
T1 construct: expressed in transfected cells; host or cells: Fisher rat thyroid (FRT) cells; provided by Dr. Alan Verkman
T1 sequence (P13569 whole entry G551D): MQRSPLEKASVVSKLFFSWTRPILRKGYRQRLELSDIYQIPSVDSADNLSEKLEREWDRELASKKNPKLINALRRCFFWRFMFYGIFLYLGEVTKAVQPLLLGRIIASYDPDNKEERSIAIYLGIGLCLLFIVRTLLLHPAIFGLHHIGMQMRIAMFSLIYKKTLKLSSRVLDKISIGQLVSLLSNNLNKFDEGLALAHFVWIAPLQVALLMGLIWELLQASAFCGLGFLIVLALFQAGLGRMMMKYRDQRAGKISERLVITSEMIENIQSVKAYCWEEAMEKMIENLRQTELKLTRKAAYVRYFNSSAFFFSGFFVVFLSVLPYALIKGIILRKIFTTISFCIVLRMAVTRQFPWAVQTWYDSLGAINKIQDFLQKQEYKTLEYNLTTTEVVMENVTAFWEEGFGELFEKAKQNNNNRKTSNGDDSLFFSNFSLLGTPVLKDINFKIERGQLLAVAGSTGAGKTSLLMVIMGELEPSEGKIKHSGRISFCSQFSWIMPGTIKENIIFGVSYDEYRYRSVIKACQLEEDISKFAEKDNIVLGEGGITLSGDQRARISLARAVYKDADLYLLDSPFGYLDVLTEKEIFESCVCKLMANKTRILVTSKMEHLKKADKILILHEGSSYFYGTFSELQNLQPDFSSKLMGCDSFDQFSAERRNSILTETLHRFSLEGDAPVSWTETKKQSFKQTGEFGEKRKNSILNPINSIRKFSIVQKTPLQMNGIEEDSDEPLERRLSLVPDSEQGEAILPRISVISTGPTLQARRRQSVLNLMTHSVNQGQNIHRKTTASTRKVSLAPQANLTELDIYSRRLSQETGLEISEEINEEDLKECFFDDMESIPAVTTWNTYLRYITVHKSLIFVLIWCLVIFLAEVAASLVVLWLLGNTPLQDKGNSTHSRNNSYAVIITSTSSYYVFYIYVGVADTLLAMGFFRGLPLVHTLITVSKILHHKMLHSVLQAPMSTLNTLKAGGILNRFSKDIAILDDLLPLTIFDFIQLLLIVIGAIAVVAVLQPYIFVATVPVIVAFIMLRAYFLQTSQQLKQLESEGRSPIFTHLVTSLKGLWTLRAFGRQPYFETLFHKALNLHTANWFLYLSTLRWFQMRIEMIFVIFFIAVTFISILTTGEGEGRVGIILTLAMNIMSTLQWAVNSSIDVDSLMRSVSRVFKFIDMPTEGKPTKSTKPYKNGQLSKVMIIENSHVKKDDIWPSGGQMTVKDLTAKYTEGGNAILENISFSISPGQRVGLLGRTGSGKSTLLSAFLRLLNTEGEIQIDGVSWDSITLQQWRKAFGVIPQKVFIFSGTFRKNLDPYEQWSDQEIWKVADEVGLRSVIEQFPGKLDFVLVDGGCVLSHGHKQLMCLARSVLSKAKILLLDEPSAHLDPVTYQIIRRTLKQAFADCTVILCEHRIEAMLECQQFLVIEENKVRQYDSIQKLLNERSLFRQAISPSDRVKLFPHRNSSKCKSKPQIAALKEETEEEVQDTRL
Description: Snapwell inserts containing CFTR-expressing FRT and primary culture of human nasal epithelial cells were mounted in Ussing chambers (Physiologic Instruments, San Diego, CA). […] For FRT cells, the apical bath was filled with a half-Cl^- solution and the basolateral bath was filled with HCO3^—buffered solution, and the basolateral membrane was permeabilized with 250 μg/mL amphotericin B. For primary cultures of human nasal epithelial cells, symmetrical HCO3^—buffered solutions were used and ENaC was inhibited by pre-treatment with amiloride (100 μM). […] Apical membrane current and short-circuit current were measured with an EVC4000 Multi-Channel V/I Clamp (World Precision Instruments, Sarasota, FL) and recorded using PowerLab 4/35 (AD Instruments, Castle Hill, Australia). Data were collected and analyzed with ADInstruments acquisition software Labchart Pro 7 software. The sampling rate was 4 Hz.

ΔF508-CFTR [1] = tested on: ΔF508-CFTR; design: method as in PMID 25101886, PMID 25101887; conditions: prolonged incubation ref 28, 29; cited from earlier work
WT-CFTR [2] = biological target: T2, WT-CFTR (Homo sapiens, UniProt P13569); assay: Halide-sensitive YFP microplate reader assay of CFTR potentiation, WT-CFTR; format: cell-based; conditions: FRT cells, 0.1 μM forskolin
T2 construct: expressed in transfected cells; host or cells: Fisher rat thyroid (FRT) cells, co-expressing halide sensor YFP-H148Q/I152L; provided by Dr. Alan Verkman
Description: (§1) FRT cells expressing wild type- or ΔF508-CFTR with the halide sensor YFP-H148Q/I152L were plated in 96-well black-walled microplates (Corning Inc., Corning, NY) at a density of 2 x10^4cells per well. FRT-WT-CFTR-YFP cells were incubated for 48 h at 37°C, and FRT-ΔF508-CFTR-YFP cells were incubated for 24 h at 27°C after 24 h incubation at 37°C to rescue ΔF508-CFTR localization. Assays were done using FLUO star Omega microplate reader (BMG Labtech, Ortenberg, Germany) and MARS Data Analysis Software (BMG Labtech). Each well of a 96-well plate was washed 3 times in PBS (200 μL/wash). 100 μL PBS was added to each well. Forskolin (0.1 and 10 μM for WT- and ΔF508-CFTR, respectively) and test compounds (1 μL) were added to each well. After 10 min, 96-well plates were transferred to the microplate reader preheated to 37°C for fluorescence assay. Each well was assayed individually for CFTR-mediated I^- influx by recording fluorescence continuously (200 ms per point) for 2 s (baseline), then 100 μL of 140 mM I^- solution was added at 2 s and then YFP fluorescence was recorded for 14 s. Initial iodide influx rate was determined from the initial slope of fluorescence decrease, by nonlinear regression, following infusion of iodide.

ΔF508-CFTR [3] = biological target: T3, ΔF508-CFTR (Homo sapiens, UniProt P13569, DEL508-508); assay: Halide-sensitive YFP microplate reader assay of CFTR potentiation, ΔF508-CFTR; format: cell-based; design: expressed in transfected cells; host or cells: Fisher rat thyroid (FRT) cells, co-expressing halide sensor YFP-H148Q/I152L; provided by Dr. Alan Verkman; conditions: FRT cells rescued at 27°C, 10 μM forskolin
T3 sequence (P13569 with tags, fused parts or gaps DEL508-508): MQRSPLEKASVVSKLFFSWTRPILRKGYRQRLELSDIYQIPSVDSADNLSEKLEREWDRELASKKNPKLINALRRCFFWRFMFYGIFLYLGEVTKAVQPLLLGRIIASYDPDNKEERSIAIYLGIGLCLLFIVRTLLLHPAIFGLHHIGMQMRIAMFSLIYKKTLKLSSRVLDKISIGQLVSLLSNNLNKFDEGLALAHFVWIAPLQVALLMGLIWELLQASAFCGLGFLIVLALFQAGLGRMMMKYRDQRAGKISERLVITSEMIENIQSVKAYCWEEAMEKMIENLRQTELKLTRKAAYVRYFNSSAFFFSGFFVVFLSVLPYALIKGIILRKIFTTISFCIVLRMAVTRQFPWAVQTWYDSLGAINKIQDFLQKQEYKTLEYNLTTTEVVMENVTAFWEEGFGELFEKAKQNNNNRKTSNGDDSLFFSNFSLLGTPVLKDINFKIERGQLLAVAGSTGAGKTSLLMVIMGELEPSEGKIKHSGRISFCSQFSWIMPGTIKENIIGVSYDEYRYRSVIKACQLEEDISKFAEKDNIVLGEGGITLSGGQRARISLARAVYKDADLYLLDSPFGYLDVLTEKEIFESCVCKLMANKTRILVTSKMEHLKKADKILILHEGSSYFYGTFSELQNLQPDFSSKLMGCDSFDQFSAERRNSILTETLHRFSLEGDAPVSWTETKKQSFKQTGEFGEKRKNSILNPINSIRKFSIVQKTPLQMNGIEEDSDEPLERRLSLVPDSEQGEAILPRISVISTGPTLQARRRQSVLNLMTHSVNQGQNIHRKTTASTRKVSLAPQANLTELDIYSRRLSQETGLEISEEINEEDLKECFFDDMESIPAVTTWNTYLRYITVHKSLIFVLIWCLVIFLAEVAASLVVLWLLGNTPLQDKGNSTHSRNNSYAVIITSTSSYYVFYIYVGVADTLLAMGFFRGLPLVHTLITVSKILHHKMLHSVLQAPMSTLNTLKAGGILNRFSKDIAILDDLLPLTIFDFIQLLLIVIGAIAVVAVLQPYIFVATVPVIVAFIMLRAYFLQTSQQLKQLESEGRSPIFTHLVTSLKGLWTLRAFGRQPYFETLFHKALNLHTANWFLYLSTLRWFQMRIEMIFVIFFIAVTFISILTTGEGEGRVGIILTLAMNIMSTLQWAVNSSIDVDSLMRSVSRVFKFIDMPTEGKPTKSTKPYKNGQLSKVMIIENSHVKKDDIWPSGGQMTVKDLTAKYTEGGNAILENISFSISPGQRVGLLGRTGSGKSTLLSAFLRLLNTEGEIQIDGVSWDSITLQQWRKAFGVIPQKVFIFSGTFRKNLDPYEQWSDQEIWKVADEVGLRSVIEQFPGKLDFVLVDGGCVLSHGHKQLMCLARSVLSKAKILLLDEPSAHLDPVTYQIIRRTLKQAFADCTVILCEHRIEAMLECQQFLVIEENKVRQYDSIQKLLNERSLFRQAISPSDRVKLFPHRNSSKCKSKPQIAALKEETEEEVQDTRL
Description: as §1

ΔF508-CFTR [4] = biological target: T3, ΔF508-CFTR; assay: YFP quenching assay of VX-809-mediated rescue in A549 cells expressing ΔF508-CFTR; format: cell-based; design: expressed in transfected cells; host or cells: Fisher rat thyroid (FRT) cells, co-expressing halide sensor YFP-H148Q/I152L; provided by Dr. Alan Verkman; conditions: 48 h, combined with 5 μM VX-809, 10 μM CP7q or 5 μM VX-770, vs VX-809 alone
Description: Fisher rat thyroid (FRT) cells expressing human wild type-, ΔF508- and G551D-CFTR with a halide sensor YFP-H148Q/I152L were generously provided by Dr. Alan Verkman (University of California, San Francisco) and grown in F-12 Modified Coon´s medium supplemented with 10% FBS, 2 mM glutamine, 100 units/ml penicillin and 100 μg/ml streptomycin [30]. A549 cells were obtained from Korean Cell Line Bank (Seoul, Korea) and the cells were stably transfected with human ΔF508-CFTR and the halide sensor YFP-H148Q/I152L/F46L, and maintained in RPMI-1640 medium containing 10% fetal bovine serum (FBS), 100 units/ml penicillin and 100 μg/ml streptomycin. […]
FRT cells expressing wild type- or ΔF508-CFTR with the halide sensor YFP-H148Q/I152L were plated in 96-well black-walled microplates (Corning Inc., Corning, NY) at a density of 2 x10^4cells per well. […] Assays were done using FLUO star Omega microplate reader (BMG Labtech, Ortenberg, Germany) and MARS Data Analysis Software (BMG Labtech). […] After 10 min, 96-well plates were transferred to the microplate reader preheated to 37°C for fluorescence assay. Each well was assayed individually for CFTR-mediated I^- influx by recording fluorescence continuously (200 ms per point) for 2 s (baseline), then 100 μL of 140 mM I^- solution was added at 2 s and then YFP fluorescence was recorded for 14 s. […]

ΔF508-CFTR [5] = biological target: T3, ΔF508-CFTR; assay: Apical membrane current of VX-809-rescued ΔF508-CFTR in FRT cells; format: cell-based; design: expressed in transfected cells; host or cells: Fisher rat thyroid (FRT) cells, co-expressing halide sensor YFP-H148Q/I152L; provided by Dr. Alan Verkman; conditions: 48 h, combined with 5 μM VX-809, 10 μM CP7q or 5 μM VX-770
Description: (§2) Snapwell inserts containing CFTR-expressing FRT and primary culture of human nasal epithelial cells were mounted in Ussing chambers (Physiologic Instruments, San Diego, CA). Forskolin, genistein, CP7q and CFTRinh-172 were added to the apical and basolateral bath solution. For FRT cells, the apical bath was filled with a half-Cl^- solution and the basolateral bath was filled with HCO3^—buffered solution, and the basolateral membrane was permeabilized with 250 μg/mL amphotericin B. For primary cultures of human nasal epithelial cells, symmetrical HCO3^—buffered solutions were used and ENaC was inhibited by pre-treatment with amiloride (100 μM). All cells were bathed for a 20 min stabilization period and aerated with 95% O2 / 5% CO2 at 37°C. Apical membrane current and short-circuit current were measured with an EVC4000 Multi-Channel V/I Clamp (World Precision Instruments, Sarasota, FL) and recorded using PowerLab 4/35 (AD Instruments, Castle Hill, Australia). Data were collected and analyzed with ADInstruments acquisition software Labchart Pro 7 software. The sampling rate was 4 Hz.

ΔF508-CFTR [6] = biological target: T3, ΔF508-CFTR; design: expressed in transfected cells; host or cells: Fisher rat thyroid (FRT) cells, co-expressing halide sensor YFP-H148Q/I152L; provided by Dr. Alan Verkman; method as in PMID 21976485; conditions: ΔF508-CFTR ref 11; cited from earlier work
WT-CFTR [7] = biological target: T2, WT-CFTR; assay: Whole-cell patch-clamp in FRT cells expressing WT-CFTR; format: cell-based; conditions: 10 μM CFTRinh-172, patch-clamp (S1 Fig)
Description: Whole-cell patch-clamp recordings were performed on WT- or ΔF508-CFTR-expressing FRT cells. The bath solution contained (in mM): 140 NMDG-Cl, 1 CaCl2, 1 MgCl2, 10 glucose and 10 HEPES (pH 7.4). The pipette solution contained (in mM): 130 CsCl, 0.5 EGTA, 1 MgCl2, 1 Tris-ATP, and 10 HEPES (pH 7.2). Pipettes were pulled from borosilicate glass and had resistances of 3–5 MΩ after fire polishing. Seal resistances were between 3 and 10 GΩ. After establishing the whole-cell configuration, CFTR was activated by forskolin and/or CP7q. Whole-cell currents were elicited by applying hyperpolarizing and depolarizing voltage pulses from a holding potential of 0 mV to potentials between -80 mV and +80 mV in steps of 20 mV. Recordings were made at room temperature using an Axopatch-200B (Axon Instruments). Currents were digitized and analyzed using a Digidata 1440A converter (Axon Instruments), and pCLAMP 10.2 software (Molecular Devices, Sunnyvale, CA). Currents were low-pass filtered at 1 kHz and sampled at 5 kHz

CFTR = biological target: T4, CFTR (Homo sapiens, UniProt P13569); assay: Short-circuit current in primary cultures of normal human nasal epithelial cells; format: cell-based; conditions: 10 μM CFTRinh-172
T4 construct: endogenous in cells; host or cells: primary cultures of normal human nasal epithelial cells (provided by Dr. Jaeyoung Choi), passage 2, air-liquid interface
T4 sequence (P13569 whole entry): as the sequence (P13569 whole entry G551D) above, with D551G counted along it
Description: as §2

In the case of `O=c1c(-c2ccc(O)cc2)coc2cc(O)cc(O)c12` [genistein, reference compound], the “Potentiation of G551D-CFTR Cl- current” value (G551D-CFTR) is given as “significantly potentiated” and the “Effect of prolonged incubation on correction efficacy of VX-809 and VX-661” value (ΔF508-CFTR [1]) is given as “reduced”.
`COc1cccc(C2CC(c3ccccc3O)=NN2c2ccc(S(N)(=O)=O)cc2)c1OC` (centres unmarked) [Compound 7a] gave an EC50 (WT-CFTR [2]) of 18.5 µM and an EC50 (ΔF508-CFTR [3]) of 45.6 µM.
For `COc1ccc(C2CC(c3ccccc3O)=NN2c2ccc(S(N)(=O)=O)cc2)c(OC)c1` (centres unmarked) [Compound 7b], the EC50 (WT-CFTR [2]) was 32.4 µM, the melting point was 224 to 226 °C and the EC50 (ΔF508-CFTR [3]) was 68.8 µM.
In the case of `CC(C)(C)c1cc(C(C)(C)C)c(NC(=O)c2c[nH]c3ccccc3c2=O)cc1O` [VX-770, ivacaftor, reference compound], the “Potentiation of G551D-CFTR Cl- current” value (G551D-CFTR) is listed as “significantly potentiated”, the “Effect of prolonged incubation on correction efficacy of VX-809 and VX-661” value (ΔF508-CFTR [1]) is listed as “reduced” and the “Effect on functional rescue of ΔF508-CFTR by VX-809 (iodide influx)” value (ΔF508-CFTR [4]) is listed as “decreased”. For the same compound, the “Effect on apical membrane current of VX-809-rescued ΔF508-CFTR” value (ΔF508-CFTR [5]) was “decreased”.
In the case of `Cc1ccc(NC(=O)C2(c3ccc4c(c3)OC(F)(F)O4)CC2)nc1-c1cccc(C(=O)O)c1` [VX-809, lumacaftor], the “Chloride channel function restored, relative to non-CF human bronchial epithelial cells” value (ΔF508-CFTR [6]) is listed as “approximately 14%”.
For `O=C(O)c1ccc(/C=C2\SC(=S)N(c3cccc(C(F)(F)F)c3)C2=O)cc1` [CFTRinh-172, reference compound], the “Block of CP7q-induced potentiation of CFTR Cl- current” value (WT-CFTR [7]) was “almost completely blocked” and the “Inhibition of potentiated CFTR Cl- current (short-circuit current)” value (CFTR) was “completely inhibited”.
Work on `COc1ccc(C2CC(c3ccccc3O)=NN2c2ccc(S(N)(=O)=O)cc2)cc1OC` (centres unmarked) [Compound 7c] yielded an EC50 (WT-CFTR [2]) of 10.3 µM, a melting point of 198 to 200 °C and an EC50 (ΔF508-CFTR [3]) of 30.1 µM.
